{"source": "patent US20230025976A1", "about": "“PRMT5 Inhibitor for Use In A Method of Treating Psoriasis and Other Autoimmune Conditions” (Pfizer Inc., priority 2020, published 2023)", "tested_on": "psoriasis patient", "assay": "Treatment of a psoriasis patient (case report, Example 1)", "format": "in vivo, human", "conditions": "for Psoriasis symptoms, skin, front of torso / Psoriasis symptoms, skin, back of torso: psoriasis patient", "experimental": "They had chronic psoriatic lesions on the front and back sides of their torso. The lesions covered 75% of their body, and the patient had difficulty controlling these symptoms despite having used several different medications in the past. The psoriasis symptoms worsened after chemotherapy. The patient was treated with 1 mg of (1S,2S,3S,5R)-3-((6-(difluoromethyl)-5-fluoro-1,2,3,4-tetrahydroisoquinolin-8-yl) oxy)-5-(4-methyl-7H-pyrrolo[2,3-d]pyrimidin-7-yl)cyclopentane-1,2-diol orally twice a day, for four months. During the treatment period the patient was questioned about other medical conditions, if any, they were then experiencing. […] The patient discontinued treatment after four months, for reasons unrelated to their psoriasis. […] Photos taken after two and six weeks of treatment document the clearing of psoriasis symptoms. FIGS. 1 and 2 depict said clearing of psoriasis symptoms."}
{"smiles": "Cc1ncnc2c1ccn2[C@@H]1C[C@H](Oc2cc(C(F)F)c(F)c3c2CNCC3)[C@@H](O)[C@H]1O", "note": "[(1S,2S,3S,5R)-3-((6-(difluoromethyl)-5-fluoro-1,2,3,4-tetrahydroisoquinolin-8-yl)oxy)-5-(4-methyl-7H-pyrrolo [2,3-d]pyrimidin-7-yl)cyclopentane-1,2-diol]", "values": [{"measurement": "Psoriatic skin lesions after cessation of treatment", "setting": "1 mg orally twice a day for four months, one month after cessation of treatment", "value": "remained in remission"}, {"measurement": "Psoriatic skin lesions", "setting": "person, severe psoriasis, 1 mg orally twice a day, following six weeks treatment", "value": "significant clearing"}, {"measurement": "Psoriatic skin lesions and related itching, patient-reported", "setting": "person, severe psoriasis, 1 mg orally twice a day, within one week of initiating treatment", "value": "improvement in their psoriatic skin lesions and a lessening of related itching"}, {"measurement": "Psoriasis symptoms, skin, front of torso", "setting": "1 mg twice daily for six weeks, FIG. 1B", "value": "mild"}, {"measurement": "Psoriasis symptoms, skin, back of torso", "setting": "1 mg twice daily for six weeks, FIG. 2B", "value": "mild"}, {"measurement": "Psoriasis symptoms, skin, front of torso", "setting": "1 mg twice daily for two weeks, FIG. 1A", "value": "moderate"}, {"measurement": "Psoriasis symptoms, skin, back of torso", "setting": "1 mg twice daily for two weeks, FIG. 2A", "value": "moderate"}]}
